Test results as given in PubChem BioAssay (NCI).
Where “and” joins values, the source holds several entries; their conditions need not be identical. Equal values may be shown once.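 Dose response: 5 concentrations. Exposure: 48 h. Format: 96-well plates. Endpoint: linear interpolation; highest concentration if not reached. GI50 = concentration required for 50% inhibition of growth. TGI marks complete inhibition of growth.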

Columns and labels:
Experiment in all cases: DTP human tumour cell line panel, 48 h
[1] = tested on: NCI-H522 lung
[2] = tested on: UACC-257 melanoma
[3] = tested on: HCT-15 colon
[4] = tested on: MCF7 breast
[5] = tested on: DU-145 prostate
[6] = tested on: HOP-62 NSCLC
[7] = tested on: T-47D breast
[8] = tested on: RPMI-8226 leukemia
[9] = tested on: MDA-MB-231 breast
[10] = tested on: A549 NSCLC

SMILES	TGI [1]	TGI [2]	TGI [3]	TGI [4]	TGI [5]	TGI [6]	TGI [7]	TGI [8]	TGI [9]	TGI [10]	GI50 [1] [µM]	GI50 [2] [µM]	GI50 [3] [µM]	GI50 [4] [µM]	GI50 [5] [µM]	GI50 [6] [µM]	GI50 [7] [µM]	GI50 [8]	GI50 [9] [µM]	GI50 [10]
CC1=CC[C@@H]2[C@@H](CC[C@@]2(C)O)C(C)(C)[C@H]1CC[C@@H]1[C@@]2(C)CCC(=O)C(C)(C)O[C@@H]2CC[C@]1(C)O	38.9 µM	> 100 µM	34.3 µM	> 100 µM	> 100 µM	> 100 µM	> 100 µM	51.1 µM	> 100 µM	> 100 µM										
Cc1cccc(C)c1NC(=O)CCC(=O)NNC(=O)c1cc(O)c2ccccc2c1	82.3 µM	> 100 µM	> 100 µM			> 100 µM		> 100 µM		> 100 µM										
COC1=CC(c2ccc[nH]2)=N/C1=C\c1[nH]c(C)c(C(=O)CCC(=O)Oc2ccc3c(c2)CCC2C3CC[C@]3(C)C(=O)CC[C@@H]23)c1C (stereo partly specified)	60.1 µM	> 100 µM	> 61.8 µM	> 49.3 µM	> 100 µM	66 µM	> 100 µM	> 100 µM	1.19 µM	> 100 µM	4.71	97.6	2.52	1.91	1.58	18.2	13.9	5.85 µM	0.276	2.65 µM
Cc1c(/C=C2\CC/C(=C\c3[nH]c(C(=O)OC(C)(C)C)c(C)c3C)C2=O)[nH]c(C(=O)OC(C)(C)C)c1C	> 100 µM	> 100 µM	> 100 µM			> 100 µM		> 100 µM		> 100 µM										
Cc1cc(N(CCCl)CCCl)ccc1C=Nc1cccnc1	38.1 µM	23.2 µM	> 100 µM	> 100 µM	42.9 µM	> 100 µM	> 73.2 µM	> 100 µM	> 100 µM	> 100 µM	14.3	3.7	27.5	1.8	4.62	10.5	1.6	21.1 µM	67.6	14.3 µM
O=C(/C=C/c1ccc(OCCCCCCCCCCOc2ccc(/C=C/C(=O)c3ccc(Cl)cc3)cc2)cc1)c1ccc(Cl)cc1	> 100 µM	> 100 µM	> 100 µM			> 100 µM		> 100 µM		> 100 µM										
COC1/C=C/O[C@@]2(C)Oc3c(C)c(O)c4c(O)c(cc(O)c4c3C2=O)NC(=O)/C(C)=C\C=C\[C@H](C)C(O)[C@@H](C)[C@@H](O)[C@@H](C)[C@H](OC(C)=O)[C@@H]1C (stereo partly specified)	11.2 µM and 20.5 µM	32.7 µM and 32.9 µM	35.1 µM and 49.8 µM	32.3 µM and 29.7 µM	26.8 µM and 54.5 µM	32.8 µM and 237 µM	23.2 µM and 48.5 µM	17.2 µM and 47.4 µM	27.2 µM and 56.2 µM	31.3 µM and 143 µM	2.72	17.5	20.9	17.3	12.3	18.8	8.63	2.14 µM and 7.37 µM	14.2	16.8 µM and 58.5 µM
COc1ccc2c(c1)C(=O)c1c-2c(NCCCN(C)C)nc2ccccc12	23.4 µM	25.4 µM	3.2 µM	4.05 µM	19.5 µM	19.9 µM	34.2 µM	4.39 µM	11.6 µM	6 µM	9.79	11.8	1.42	1.54	6.67	5.93	17.8	1.93 µM	1.98	1.86 µM
Cc1ccc(NS(=O)(=O)c2ccc(-c3cnc(C4CC4)o3)cc2)cc1	17.4 µM	27.8 µM	13.1 µM	14.9 µM	16.5 µM	16.7 µM	11 µM	12.6 µM	18.8 µM	26.2 µM	2.43	10.8	1.48	1.55	3.99	3.13	2.68	2.82 µM	4.5	4.55 µM
CN(C)c1c(Cl)c(=O)oc2c1ccc1nc(-c3ccccc3)sc12	> 100 µM	> 100 µM	> 100 µM	> 100 µM	> 100 µM	> 100 µM	> 100 µM	> 100 µM	> 100 µM	> 100 µM										
CCCCN(CC)C(=O)C(=O)C1C(=O)Nc2ccccc2S1=O (stereo unspecified)	> 100 µM	> 100 µM	> 100 µM			> 100 µM		> 100 µM		> 100 µM										
COC(=O)OCC1OC(N2C(=O)NC(=O)C(I)C2N=[N+]=[N-])CC1OC(=O)OC (stereo unspecified)	> 100 µM	> 100 µM	> 100 µM			> 100 µM		> 100 µM		> 100 µM										
N#C/C(=C\c1ccc(CP(=O)(O)O)cc1)C(N)=O	> 100 µM	> 100 µM	> 100 µM			> 100 µM		> 100 µM		> 100 µM										
COc1cc2c(cc1O)[C@H](C)C(c1ccc(Cl)cc1)O2 (stereo partly specified)	27.3 µM	> 100 µM	27.7 µM			68.2 µM		25.6 µM		98.6 µM										
OCC(O)CC[CH2][Sn]([c]1ccccc1)([c]1ccccc1)[c]1ccccc1 (stereo unspecified)	13.7 µM	35.8 µM	26.8 µM			39.1 µM		47.5 µM		22.6 µM	4.64	18.4	12.7			18.4		14.4 µM		10.7 µM
O=c1cc2n(c(=O)[nH]1)C1OC(C(O)C1O)[C@@H]2CCO (stereo partly specified)	> 100 µM	> 100 µM				> 100 µM				> 100 µM										
COc1cc2c(-c3nc4cc(Cl)c(F)cc4s3)cc(=O)oc2c(C)c1OC	0.354 µM	2.89 µM			3.05 µM	3.16 µM					0.176	1.38			1.62	1.67				
O=c1/c(=C/c2cccc3ccccc23)sc2nc3ccccc3n12	> 100 µM	> 100 µM	> 100 µM			> 100 µM				> 100 µM										
Nc1nc2ncn(CCO)c2c(=O)[nH]1		> 100 µM	> 100 µM			> 100 µM		> 100 µM		> 100 µM										
